Experimental data reported in patent US20100216160A1, “METHOD FOR THE SCREENING […] ACTIVITY-MODULATING AGENTS AND MEANS FOR CARRYIING OUT SAID METHOD” (CYTOMICS SYSTEMS, priority 2005, published 2010).
Residues, ends and D or L forms follow the SMILES beside them. *: point of attachment. Cbz = O=C(OCc1ccccc1)*

Experiments:
Assay type in all cases: cell-based, Saccharomyces cerevisiae
[1] = tested on: proteasome of yeast cells (CYS344 strain, mAG-p21[6KR]^WAF1/Cip1 fusion protein); experiment: Degradation of mAG-p21[6KR]WAF1/Cip1 fusion protein in CYS344 yeast cells, epifluorescence microscopy; conditions: 50 μM MG132 added with 2% glucose after 120 minutes galactose, 0, 60, 120, 180 minutes after glucose
Method: The yeast cells of the CYS344 strain were cultured in minimal medium in the presence of galactose as a carbon source for 120 minutes.
(§1) At the end of these 120 minutes, 2% glucose was added to the culture, in the presence and in the absence of 50 μM of a known proteasome inhibitor, the MG132.
The cells were observed using an epifluorescence microscope (fluorescent microscope Nikon Eclipse fitted with an Omega XF116 filter). All the pictures were saved on a Hamamastu® camera using similar settings, then analyzed with the LUCIA G software, immediately before adding glucose (0 minute), and 60, 120 and 180 minutes (60, 120, 180 minutes) following the addition of glucose. The presence of MG132 in the culture is indicated by MG132″.

[2] = tested on: proteasome of the recombinant yeast cells (CYS343 strain, mAG-p21^WAF1/Cip1 fusion protein); experiment: Degradation of mAG-p21WAF1/Cip1 fusion protein in CYS343 yeast cells, immunoblotting (Western blotting); conditions: 50 μM MG132 added with 2% glucose after 120 minutes galactose, 30, 60, 120 and 150 minutes after glucose
Method: (§2) The degradation of the fusion proteins comprising p21^WAF1/Cip1 or p21[6KR]^WAF1/Cip1 fused with mAG by the proteasome of the recombinant yeast cells of CYS 344 and CYS 343 strains was controlled by an immunoblotting technique, in the presence or in the absence of a proteasome inhibitor, the Mg132 compound.
(§3) All the yeast strains used were cultured and analyzed in a similar way.
(§4) The cells were cultured in minimal medium in the presence of galactose as a carbon source for 120 minutes.
(§5) At the end of these 120 minutes, 2% glucose was added to the culture, in the presence and in the absence of 50 μM of a known proteasome inhibitor, the Mg 132.
FIG. 3B illustrates the results obtained with the CYS343 recombinant yeast strain. Total proteins were prepared before adding galactose (0), 60 and 120 minutes following the addition of galactose (+galactose 0, 60, 120) and 30, 60, 120 and 150 minutes (+glucose, 30, 60, 120, 150) following the addition of glucose.
(§6) These proteins were analyzed by immunoblotting technique (“Western blotting”) using an antibody that recognized the p21^WAF1/Cip1 part of the fusion proteins (noted “mAG-p21^WAF1/Cip1” or “mAG-p21[6KR]^WAF1/Cip1” on FIG. 3).
(§7) The presence of MG132 in the culture is indicated by “+MG132” on FIG. 3. […]

[3] = tested on: proteasome of yeast cells (CYS343 strain, mAG-p21^WAF1/Cip1 fusion protein); experiment: Flow cytometric quantification (FACS) of fluorescence of mAG-p21WAF1/Cip1 fusion protein in CYS343 yeast cells; conditions: 50 μM MG132 added with 2% glucose after 120 minutes galactose, time D1h, D2h, D3h
Method: (§8) The yeast cells were cultured in the presence or in the absence of the MG132 proteasome inhibitor.
(§9) All the cells were cultured in minimal medium in the presence of galactose as a carbon source for 120 minutes.
as §1
(§10) The fluorescence emitted by the cells was quantified using a FacsCalibur flow cytometer (Beckton-Dickinson), immediately before adding galactose (I0), 1 and 2 hour(s) following the addition of galactose (I1 and I2) and 1, 2 and 3 hours (D1, D2 and D3) following the addition of glucose. The presence of Mg132 in the culture is indicated by “+MG132”. The fluorescence is expressed in arbitrary units.

[4] = tested on: proteasome of yeast cells (CYS344 strain, mAG-p21[6KR]^WAF1/Cip1 fusion protein); experiment: Flow cytometric quantification (FACS) of fluorescence of mAG-p21[6KR]WAF1/Cip1 fusion protein in CYS344 yeast cells; conditions: 50 μM MG132 added with 2% glucose after 120 minutes galactose, time D1h, D2h, D3h
Method: as §8, §9, §1, §10

[5] = tested on: proteasome of the recombinant yeast cells (CYS344 strain, mAG-p21[6KR]^WAF1/Cip1 fusion protein); experiment: Degradation of mAG-p21[6KR]WAF1/Cip1 fusion protein in CYS344 yeast cells, immunoblotting (Western blotting); conditions: 50 μM MG132 added with 2% glucose after 120 minutes galactose, 30, 60 and 120 minutes after glucose
Method: as §2, §3, §4, §5
The results are given on FIG. 3 (FIG. 3A and FIG. 3B). FIG. 3A illustrates the results obtained with the CYS344 recombinant yeast strain.
Total proteins were prepared before adding galactose (0), 60 and 120 minutes following the addition of galactose (+galactose 0, 60, 120) and 30, 60 and 120 minutes (+glucose, 30, 60, 120) following the addition of glucose.
as §6, §7

CC(C)C[C@@H](C=O)NC(=O)[C@H](CC(C)C)NC(=O)[C@H](CC(C)C)NC(=O)OCc1ccccc1 [MG132] (Cbz-Leu-Leu-Leu-aldehyde)
fluorescence signal intensity of mAG-p21[6KR]WAF1/Cip1 fusion protein versus culture time (epifluorescence microscopy) [1]: fluorescence signal intensity versus culture time was maintained | degradation of the mAG-p21[wt]WAF1/Cip1 fusion protein (Western blotting) [2]: inhibit the degradation of the fusion protein | degradation of the mAG-p21WAF1/Cip1 fusion protein (fluorescence, flow cytometry) [3]: strongly inhibited | degradation of the mAG-p21[6KR]WAF1/Cip1 fusion protein (fluorescence, flow cytometry) [4]: strongly inhibited | degradation of the mAG-p21[6KR]WAF1/Cip1 fusion protein (Western blotting) [5]: inhibit the degradation of the fusion protein
